{"source": "patent US5334619A", "about": "“Inhibition of postharvest fruit decay by 2-nonanone” (priority 1993, dated 1994)", "key": {"B. cinerea [1]": {"tested_on": "B. cinerea", "test": "Radial growth of cultures with 2-nonanone in the growth medium", "type": "cell-based", "details": "Botrytis cinerea, read-out: Fungal Growth (% of control), B. cinerea", "experimental": "(§1) Fungal cultures of A. alternata and B. cinerea were obtained from the Agricultural Research Service, NRRL Culture Collection in Peoria, Ill. […] An isolate of C. gloeosporioides pathogenic on blueberries was obtained from the USDA/ARS Cranberry and Blueberry Research Center, Chatsworth, N.J. All cultures were maintained at 24° C. and 95% relative humidity on V-8 juice agar supplemented with 0.3% CaCO3 and adjusted to pH 5.8. Spores of each fungus were removed from sporulating cultures by carefully brushing the surface of the media with a glass rod and suspending the spores in sterile water. The concentrations of spores in the suspensions were adjusted to concentrations of 10^6 to 10^7 spores/ml. These suspensions were mixed together to form a composite suspension which was used to inoculate all the fruit in a given experiment. 2-Nonanone was assayed as a medium component by adding an appropriate amount to cooled V-8 juice media in 9.0 cm plastic petri dishes. Experiments were initiated by placing 7 mm plugs of mycelia in the center of the petri dishes. As the cultures were nearly circular, the radii (from the inoculum plug to one typical point on the growing margin) of the cultures were measured and expressed as a percentage of the control. The treatment was replicated five times and the data were treated by analysis of variance."}, "A. alternata [2]": {"tested_on": "A. alternata", "test": "Radial growth of cultures with 2-nonanone in the growth medium", "type": "cell-based", "details": "Alternaria alternata, read-out: Fungal Growth (% of control), A. alternata", "experimental": "as §1"}, "C. gloeosporioides [3]": {"tested_on": "C. gloeosporioides", "test": "Radial growth of cultures with 2-nonanone in the growth medium", "type": "cell-based", "details": "Colletotrichum gloeosporioides, read-out: Fungal Growth (% of control), C. gloeosporioides", "experimental": "as §1"}, "C. gloeosporioides [4]": {"tested_on": "C. gloeosporioides", "test": "Treatment of isolated cultures with 2-nonanone vapor", "type": "cell-based, Colletotrichum gloeosporioides", "details": "7 days, 10° C., 0 = no growth, 4 = media completely covered", "experimental": "(§2) Fungal cultures of A. alternata and B. cinerea were obtained from the Agricultural Research Service, NRRL Culture Collection in Peoria, Ill. […] An isolate of C. gloeosporioides pathogenic on blueberries was obtained from the USDA/ARS Cranberry and Blueberry Research Center, Chatsworth, N.J. All cultures were maintained at 24° C. and 95% relative humidity on V-8 juice agar supplemented with 0.3% CaCO3 and adjusted to pH 5.8. Spores of each fungus were removed from sporulating cultures by carefully brushing the surface of the media with a glass rod and suspending the spores in sterile water. The concentrations of spores in the suspensions were adjusted to concentrations of 10^6 to 10^7 spores/ml. These suspensions were mixed together to form a composite suspension which was used to inoculate all the fruit in a given experiment.\n(§3) A bioassay system was developed to test the effects of the volatile compounds on fungal growth both on intact fruit and on V-8 juice medium. The apparatus consisted of 75 ml glass jars into which either fruit or sterilized V-8 juice medium (10 ml) were added. These jars were placed in 275 ml airtight glass jars with aluminum foil cap liners. The bottom of each 275 ml jar was fitted with a 5.5 cm filter paper disk (Whatman No. 1) for application of the appropriate amount of test compound. The total gas headspace in the larger jars after the addition of all components was 250 ml.\n(§4) The fungi assayed against included B. cinerea, C. gloeosporioides and A. alternata. The compound was bioassayed as a volatile using the apparatus described in Example 1 by placing 7 mm diameter plugs of mycelia from actively-growing 1 week-old cultures on V-8 juice media in the 75 ml jars, with the appropriate amount (0, 5, 10, 25 or 100 μl ) of compound applied to the filter paper on the bottom of the larger jar. Assuming complete volatilization, these amounts would produce a nonanone concentration within the headspace of 0.02, 0.04, 0.10, and 0.40 μL/ml, respectively. The sealed jars were then placed in a growth chamber in the dark at 10° C. for 7 days. Due to growth of fungi limited to the plug in many cases and the difficulty of accurately measuring the fungal growth in the jars, a rating system was developed as follows: 0, no growth of fungi, including on plug; 1, growth on plug only; 2, small amount of fungal growth on medium; 3, most of medium covered with fungal mycelia; and 4, all of medium covered. The treatment was replicated three times and the data were treated by statistical analysis of variance."}, "[5]": {"tested_on": "composite spore suspension of A. alternata, B. cinerea and C. gloeosporioides on strawberries", "test": "Fungal growth on inoculated strawberry fruit exposed to volatile compounds", "details": "0.4 μl/ml vapor, 10 days, 10° C.; mean, 0 = no fungi present, 3 = fruit completely covered by fungal mycelia", "experimental": "as §2\n(§5) Untreated red raspberries (cv. `Heritage`) and strawberries (cv. `Ozark Beauty`) were harvested and used the same day. Berries were selected on the basis of uniform size, color, firmness, and absence of evidence of defects or diseases.\n(§6) A bioassay system was developed to test the effects of the volatile compounds on fungal growth both on intact fruit and on V-8 juice medium. The apparatus consisted of 75 ml glass jars into which either fruit or sterilized V-8 juice medium (10 ml) were added. […]"}, "B. cinerea [6]": {"tested_on": "B. cinerea", "test": "Treatment of isolated cultures with 2-nonanone vapor", "type": "cell-based, Botrytis cinerea", "details": "7 days, 10° C., 0 = no growth, 4 = media completely covered", "experimental": "as §2, §3, §4"}, "A. alternata [7]": {"tested_on": "A. alternata", "test": "Treatment of isolated cultures with 2-nonanone vapor", "type": "cell-based, Alternaria alternata", "details": "7 days, 10° C., 0 = no growth, 4 = media completely covered", "experimental": "as §2, §3, §4"}, "[8]": {"tested_on": "composite spore suspension of A. alternata, B. cinerea and C. gloeosporioides on red raspberries", "test": "Fungal growth on inoculated raspberry fruit exposed to volatile compounds", "details": "0.4 μl/ml vapor, 10 days, 10° C.; mean, 0 = no fungi present, 3 = fruit completely covered by fungal mycelia", "experimental": "as §2, §5, §6"}, "[9]": {"tested_on": "red raspberries (cv. `Heritage`)", "test": "Fruit damage rating of inoculated raspberry fruit exposed to volatile compounds", "design": "species or system Rubus idaeus L.", "details": "0.4 μl/ml vapor, 10 days, 10° C.; mean, 0 = intact, undamaged fruit, 3 = whole fruit necrotic and watersoaked", "experimental": "as §5, §3\n(§7) Red raspberries and strawberries were rinsed with sterile distilled water and allowed to dry before inoculation. The fruit was sprayed with the spore suspension to runoff. Single red raspberries or strawberries were placed in the 75 ml jars, and 100 μl each of a single test compound was added to the filter paper on the bottom of a 275 ml jar. The 275 ml jar was then sealed. Fruit were kept at 10° C. in the dark for 10 days then rated for development of fungi and for damage to the fruit due to the treatments. […]"}, "rat": {"tested_on": "rat", "details": "cited from earlier work"}, "[10]": {"tested_on": "strawberries (cv. `Ozark Beauty`)", "test": "Fruit damage rating of inoculated strawberry fruit exposed to volatile compounds", "design": "species or system Fragaria ananassa, Duchesne", "details": "0.4 μl/ml vapor, 10 days, 10° C.; mean, 0 = intact, undamaged fruit, 3 = whole fruit necrotic and watersoaked", "experimental": "as §5, §3, §7"}}}
{"compound": "CCCCCCCC(C)=O", "note": "[2-Nonanone, 2-nonanone]", "values": [{"measurement": "activity at 0.01 %", "setting": "B. cinerea [1]; 0.01% in V-8 juice medium", "result": 100, "unit": "%"}, {"measurement": "activity at 0.1 %", "setting": "B. cinerea [1]; 0.10% in V-8 juice medium", "result": 83, "unit": "%"}, {"measurement": "activity at 1 %", "setting": "B. cinerea [1]; 1.00% in V-8 juice medium", "result": 0, "unit": "%"}, {"measurement": "activity at 0.01 %", "setting": "A. alternata [2]; 0.01% in V-8 juice medium", "result": 85.2, "unit": "%"}, {"measurement": "activity at 0.1 %", "setting": "A. alternata [2]; 0.10% in V-8 juice medium", "result": 48.7, "unit": "%"}, {"measurement": "activity at 1 %", "setting": "A. alternata [2]; 1.00% in V-8 juice medium", "result": 0, "unit": "%"}, {"measurement": "activity at 0.01 %", "setting": "C. gloeosporioides [3]; 0.01% in V-8 juice medium", "result": 100, "unit": "%"}, {"measurement": "activity at 0.1 %", "setting": "C. gloeosporioides [3]; 0.10% in V-8 juice medium", "result": 95.7, "unit": "%"}, {"measurement": "activity at 1 %", "setting": "C. gloeosporioides [3]; 1.00% in V-8 juice medium", "result": 0, "unit": "%"}, {"measurement": "Fungal Growth Rating, C. gloeosporioides", "setting": "C. gloeosporioides [4]; vapor phase 0.02 μl/ml", "result": 2.0}, {"measurement": "Fungal Growth Rating, C. gloeosporioides", "setting": "C. gloeosporioides [4]; vapor phase 0.04 μl/ml", "result": 0.6}, {"measurement": "Fungal Growth Rating, C. gloeosporioides", "setting": "C. gloeosporioides [4]; vapor phase 0.10 μl/ml", "result": 0.0}, {"measurement": "Fungal Growth Rating, C. gloeosporioides", "setting": "C. gloeosporioides [4]; vapor phase 0.40 μl/ml", "result": 0.0}, {"measurement": "Fungal Rating, Strawberry", "setting": "[5]", "result": 0.0}, {"measurement": "Fungal Growth Rating, B. cinerea", "setting": "B. cinerea [6]; vapor phase 0.02 μl/ml", "result": 1.0}, {"measurement": "Fungal Growth Rating, B. cinerea", "setting": "B. cinerea [6]; vapor phase 0.04 μl/ml", "result": 0.0}, {"measurement": "Fungal Growth Rating, B. cinerea", "setting": "B. cinerea [6]; vapor phase 0.10 μl/ml", "result": 0.0}, {"measurement": "Fungal Growth Rating, B. cinerea", "setting": "B. cinerea [6]; vapor phase 0.40 μl/ml", "result": 0.0}, {"measurement": "Fungal Growth Rating, A. alternata", "setting": "A. alternata [7]; vapor phase 0.02 μl/ml", "result": 2.7}, {"measurement": "Fungal Growth Rating, A. alternata", "setting": "A. alternata [7]; vapor phase 0.04 μl/ml", "result": 1.3}, {"measurement": "Fungal Growth Rating, A. alternata", "setting": "A. alternata [7]; vapor phase 0.10 μl/ml", "result": 0.0}, {"measurement": "Fungal Growth Rating, A. alternata", "setting": "A. alternata [7]; vapor phase 0.40 μl/ml", "result": 0.0}, {"measurement": "Fungal Rating, Raspberry", "setting": "[8]", "result": 0.0}, {"measurement": "Fruit damage rating, Raspberry", "setting": "[9]", "result": 2.0}, {"measurement": "oral rat LD50", "setting": "rat", "result": 3200, "unit": "mg/kg"}, {"measurement": "Fruit damage rating, Strawberry", "setting": "[10]", "result": 1.7}]}
